{"source": "patent US20030215462A1", "about": "“Use of UGT inhibitors to increase bioavailability” (priority 2001, published 2003)", "key": {"[1]": {"tested_on": "T1, UGT enzymes of human liver microsomes", "T1 construct": "residual metabolism (% of control), E2-3-β-D-glucuronide; other: liver 032101; residual metabolism (% of control), E2-3-β-D-glucuronide", "experiment": "Inhibition of estradiol (E2) glucuronidation in human liver microsomes", "format": "biochemical", "settings": "liver 032101; E2 50 μM; inhibitor 100 μM", "excerpt": "(§1) Compounds were eluted using a binary solvent gradient system where solvent A was dilute phosphoric acid (pH 3) and solvent B was 80:20 acetonitrile-methanol. […] Detection was at 280 nm."}, "[2]": {"tested_on": "UGT enzymes of human liver microsomes", "experiment": "Inhibition of estradiol (E2) glucuronidation in human liver microsomes", "format": "biochemical", "settings": "E2 50 μM", "excerpt": "as §1"}, "[3]": {"tested_on": "T2, UGT enzymes of human liver microsomes", "T2 construct": "residual metabolism (% of control), E2-17-β-D-glucuronide; other: liver 032101; residual metabolism (% of control), E2-17-β-D-glucuronide", "experiment": "Inhibition of estradiol (E2) glucuronidation in human liver microsomes", "format": "biochemical", "settings": "liver 032101; E2 50 μM; inhibitor 100 μM", "excerpt": "as §1"}, "[4]": {"tested_on": "UGT enzymes of human liver microsomes", "experiment": "Inhibition of 2ME2 glucuronidation (MG1, MG2) in human liver microsomes", "format": "biochemical", "settings": "liver 062101, 2ME2 50 μM", "excerpt": "as §1"}, "[5]": {"tested_on": "T3, UGT enzymes of human liver microsomes", "T3 construct": "percentage of control metabolism, 7-HFC glucuronidation; percentage of control metabolism, 7-HFC glucuronidation", "experiment": "Inhibition of 7-HFC glucuronidation in human liver microsomes", "format": "biochemical", "settings": "for % of control metabolism (SD, n = 3), 7-HFC glucuronidation: 7-HFC 50 μM, human liver microsomes 100 μg/ml, 15 min"}, "[6]": {"target": "T4, UGT1A3 (Homo sapiens, UniProt P35503)", "T4 sequence (P35503 29-534)": "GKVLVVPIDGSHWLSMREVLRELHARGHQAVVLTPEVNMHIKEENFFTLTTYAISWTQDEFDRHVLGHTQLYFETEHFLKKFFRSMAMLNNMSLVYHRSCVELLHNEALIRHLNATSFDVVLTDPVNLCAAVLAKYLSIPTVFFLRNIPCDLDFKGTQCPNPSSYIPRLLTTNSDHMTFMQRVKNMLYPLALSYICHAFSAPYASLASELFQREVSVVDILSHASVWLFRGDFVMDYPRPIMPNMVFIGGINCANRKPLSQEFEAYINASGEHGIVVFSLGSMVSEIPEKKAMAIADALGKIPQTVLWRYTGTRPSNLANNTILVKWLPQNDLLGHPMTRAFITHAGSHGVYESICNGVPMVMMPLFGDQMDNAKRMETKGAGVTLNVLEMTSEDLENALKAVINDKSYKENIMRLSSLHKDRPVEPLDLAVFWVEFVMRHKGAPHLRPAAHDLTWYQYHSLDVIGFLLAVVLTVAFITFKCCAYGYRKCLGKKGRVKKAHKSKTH", "experiment": "Inhibition of raloxifene glucuronidation by recombinant UGT1A3 Supersomes", "settings": "human; for activity at 15 min, 10 µM: inhibitor 10 μM; for activity at 15 min, 25 µM: inhibitor 25 μM; for activity at 15 min, 50 µM: inhibitor 50 μM", "description": "Compounds were eluted using a binary solvent gradient system. Solvent A was water brought to pH 8 with NH4OH. Solvent B was methanol. Solvent flow rate was 1 ml/min and the column temperature was maintained at 50° C. Detection was at 280 nm. […] The system was then returned to the initial conditions and equilibrated for 3 min."}, "[7]": {"tested_on": "UGT enzymes of human liver microsomes", "experiment": "Inhibition of labetalol glucuronidation (LG1, LG2) in human liver microsomes", "format": "biochemical", "settings": "labetalol 50 μM"}, "[8]": {"settings": "Supersomes with recombinant human UGT1A3, pH 7.5, probe raloxifene 50 μM, formation of glucuronide G1, % of control metabolism, raloxifene G1, UGT1A3"}, "[9]": {"settings": "Supersomes with recombinant human UGT1A3, pH 7.5, probe raloxifene 50 μM, formation of glucuronide G2, % of control metabolism, raloxifene G2, UGT1A3"}, "[10]": {"settings": "recombinant UGT1A3 Supersomes, pH 7.5, probe raloxifene 50 μM (formation of glucuronide G1), Inhibition of raloxifene glucuronidation, G1, UGT1A3, G1, raloxifene 50 μM, 250 μg/ml Supersomes, 1 mM UDPGA, 15 min"}, "[11]": {"settings": "recombinant UGT1A3 Supersomes, pH 7.5, probe raloxifene 50 μM (formation of glucuronide G2), Inhibition of raloxifene glucuronidation, G2, UGT1A3, G2, raloxifene 50 μM, 250 μg/ml Supersomes, 1 mM UDPGA, 15 min"}}}
{"smiles": "CC/C(=C(/CC)c1ccc(O)cc1)c1ccc(O)cc1", "note": "[Diethylstilbestrol, reference compound]", "values": [{"measurement": "residual metabolism (% of control), E2-3-β-D-glucuronide", "setting": "[1]", "value": "69 (1), %"}, {"measurement": "residual metabolism (% of control), E2-3-β-D-glucuronide", "setting": "[2]; liver 032101, inhibitor 1 μM", "value": "85 (1), %"}, {"measurement": "residual metabolism (% of control), E2-17-β-D-glucuronide", "setting": "[2]; liver 032101, inhibitor 1 μM", "value": "361 (6) %"}, {"measurement": "residual metabolism (% of control), E2-3-β-D-glucuronide", "setting": "[2]; liver 032101, inhibitor 10 μM", "value": "57 (4), %"}, {"measurement": "residual metabolism (% of control), E2-17-β-D-glucuronide", "setting": "[2]; liver 032101, inhibitor 10 μM", "value": "545 (32) %"}, {"measurement": "residual metabolism (% of control), E2-3-β-D-glucuronide", "setting": "[2]; liver 062101, inhibitor 1 μM", "value": "86 (3) %"}, {"measurement": "residual metabolism (% of control), E2-17-β-D-glucuronide", "setting": "[2]; liver 062101, inhibitor 1 μM", "value": "254 (2) %"}, {"measurement": "residual metabolism (% of control), E2-3-β-D-glucuronide", "setting": "[2]; liver 062101, inhibitor 10 μM", "value": "71 (2) %"}, {"measurement": "residual metabolism (% of control), E2-17-β-D-glucuronide", "setting": "[2]; liver 062101, inhibitor 10 μM", "value": "446 (7) %"}, {"measurement": "residual metabolism (% of control), E2-17-β-D-glucuronide", "setting": "[3]", "value": "217 (5) %"}, {"measurement": "residual metabolism (% of control), 2ME2 MG1", "setting": "[4]; inhibitor 1 μM", "value": "88 (2) %"}, {"measurement": "residual metabolism (% of control), 2ME2 MG2", "setting": "[4]; inhibitor 1 μM", "value": "335 (5) %"}, {"measurement": "residual metabolism (% of control), 2ME2 MG1", "setting": "[4]; inhibitor 10 μM", "value": "72 (2) %"}, {"measurement": "residual metabolism (% of control), 2ME2 MG2", "setting": "[4]; inhibitor 10 μM", "value": "632 (4) %"}, {"measurement": "percentage of control metabolism, 7-HFC glucuronidation", "setting": "[5]; inhibitor 25 μM", "value": "57 (1) %"}, {"measurement": "% of control metabolism (SD, n = 3), 7-HFC glucuronidation", "setting": "[5]; inhibitor 25 μM", "value": "57 (1) %"}, {"measurement": "percentage of control metabolism, 7-HFC glucuronidation", "setting": "[5]; inhibitor 50 μM", "value": "34 (2) %"}, {"measurement": "% of control metabolism (SD, n = 3), 7-HFC glucuronidation", "setting": "[5]; inhibitor 50 μM", "value": "34 (2) %"}, {"measurement": "percentage of control metabolism, 7-HFC glucuronidation", "setting": "[5]; inhibitor 100 μM", "value": "11 (1) %"}, {"measurement": "% of control metabolism (SD, n = 3), 7-HFC glucuronidation", "setting": "[5]; inhibitor 100 μM", "value": "11 (1) %"}, {"measurement": "percentage of control metabolism, 7-HFC glucuronidation", "setting": "[5]; inhibitor 200 μM", "value": "1 (0) %"}, {"measurement": "% of control metabolism (SD, n = 3), 7-HFC glucuronidation", "setting": "[5]; inhibitor 200 μM", "value": "1 (0) %"}, {"measurement": "percentage of control metabolism, 7-HFC glucuronidation", "setting": "[5]; inhibitor 500 μM", "value": "0.1 (0) %"}, {"measurement": "% of control metabolism (SD, n = 3), 7-HFC glucuronidation", "setting": "[5]; inhibitor 500 μM", "value": "0.1 (0) %"}, {"measurement": "activity at 15 min, 10 µM", "setting": "[6]; [8]", "value": 65, "unit": "%"}, {"measurement": "activity at 15 min, 25 µM", "setting": "[6]; [8]", "value": 32, "unit": "%"}, {"measurement": "activity at 15 min, 50 µM", "setting": "[6]; [8]", "value": 14, "unit": "%"}, {"measurement": "activity at 15 min, 10 µM", "setting": "[6]; [9]", "value": 74, "unit": "%"}, {"measurement": "activity at 15 min, 25 µM", "setting": "[6]; [9]", "value": 48, "unit": "%"}, {"measurement": "activity at 15 min, 50 µM", "setting": "[6]; [9]", "value": 21, "unit": "%"}, {"measurement": "activity at 15 min, 10 µM", "setting": "[6]; [10]", "value": 65, "unit": "%"}, {"measurement": "activity at 15 min, 25 µM", "setting": "[6]; [10]", "value": 32, "unit": "%"}, {"measurement": "activity at 15 min, 50 µM", "setting": "[6]; [10]", "value": 14, "unit": "%"}, {"measurement": "activity at 15 min, 10 µM", "setting": "[6]; [11]", "value": 74, "unit": "%"}, {"measurement": "activity at 15 min, 25 µM", "setting": "[6]; [11]", "value": 48, "unit": "%"}, {"measurement": "activity at 15 min, 50 µM", "setting": "[6]; [11]", "value": 21, "unit": "%"}, {"measurement": "residual metabolism (percentage of control), labetalol LG1", "setting": "[7]; inhibitor 10 μM", "value": "66 (6) %"}, {"measurement": "residual metabolism (percentage of control), labetalol LG2", "setting": "[7]; inhibitor 10 μM", "value": "68 (7) %"}, {"measurement": "residual metabolism (percentage of control), labetalol LG1", "setting": "[7]; inhibitor 25 μM", "value": "39 (1) %"}, {"measurement": "residual metabolism (percentage of control), labetalol LG2", "setting": "[7]; inhibitor 25 μM", "value": "45 (3) %"}]}
